# Source: paper PMC4728187, “A fluorescent approach for identifying P2X1 ligands” (Neuropharmacology, 2015)
# “And” between values parts separate entries of the source, which are not always exact repeats. Equal values may be shown once. “Also recorded” adds a separate entry of the source.
# Experiments:
# [1] = target: P2X1 with N-terminus substituted by that of P2X2 receptor; parameters: method as in Rettinger and Schmalzing, 2004; Bhargava et al., 2013; conditions: desensitisation slowed by P2X2 N-terminus substitution; ref Rettinger and Schmalzing, 2004; Bhargava et al., 2013; cited from earlier work
# P2X1 receptors [2] = target: T1, P2X1 receptors (Homo sapiens, UniProt P51575); assay: Confocal imaging of Alexa-647-ATP cell-surface labelling and competition by pre-treatment
# T1 sequence (P51575 1-399): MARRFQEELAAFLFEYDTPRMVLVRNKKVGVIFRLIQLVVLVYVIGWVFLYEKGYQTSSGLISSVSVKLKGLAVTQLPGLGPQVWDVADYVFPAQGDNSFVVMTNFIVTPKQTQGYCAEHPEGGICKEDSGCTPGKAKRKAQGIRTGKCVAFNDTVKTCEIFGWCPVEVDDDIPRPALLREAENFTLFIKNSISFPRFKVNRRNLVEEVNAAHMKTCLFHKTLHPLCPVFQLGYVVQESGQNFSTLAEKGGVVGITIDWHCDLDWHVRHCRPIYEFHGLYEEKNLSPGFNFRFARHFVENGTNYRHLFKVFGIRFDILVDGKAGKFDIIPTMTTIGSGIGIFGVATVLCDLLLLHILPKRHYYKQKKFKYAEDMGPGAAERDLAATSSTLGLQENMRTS
# Description: (§1) Live cells were routinely visualised in phosphate buffered saline (PBS (mM); 155 NaCl, 3.0 Na2HPO4, 1.0 KH2PO4, pH 7.4). Static and time-lapse images were collected using a FV300 laser-scanning confocal microscope with either an Olympus UplanFLN 40 × NA1.30 oil immersion objective and a 60 μm confocal aperture, or a PlanApo 60x NA1.42 oil immersion objective and a 60 μm confocal aperture. Images were exported to ImageJ v1.47 (National Institutes of Health, USA) and the Multi Measure plugin (Optinav Inc, WA, USA) used for analysing regions of interest.
# [3] = test system: Untransfected HEK 293T cells; assay: Fluorometric microplate assay with voltage-sensitive dye on untransfected cells; format: cell-based
# P2X1 receptors [4] = target: T1, P2X1 receptors; assay: Fluorometric microplate assay with voltage-sensitive (membrane potential) dye, FlexStation III; format: cell-based; parameters: expressed in transfected cells; conditions: for Hill slope (agonist response): agonist concentration-response; for EC50 / pEC50: agonist, peak fluorescence, HEK 293T cells stably expressing P2X1; for Hill slope (inhibition): inhibition of 10 μM ATP responses
# Description: In brief, fragments were assessed for both agonist and antagonist activities using HEK 293T cells stably expressing doxycycline-inducible P2X1 receptors incubated for 45 min with 50 μl of a fluorescent dye sensitive to membrane potential (dye FLIPR Membrane Potential Assay Kit, Molecular Devices, Wokingham, UK) that was dissolved in buffer (mM: 115 NaCl, 1 KCl, 1 MgCl2, 1 CaCl2, 10 HEPES, 10 D-Glucose, pH 7.4). Dye-loaded cells were transferred to a FlexStation III (Molecular Devices) where compound applications were made without removing the dye. At recording intervals of 1.2 s, baseline fluorescence was recorded for 20 s, followed by a further 60 s after the addition of compounds. Ultimately two applications were made to the same cells. In the first, agonist activity was assessed by adding 50 μl novel fragment (final concentration = 300 μM) to each well. Following the completion of the first application, a second 50 μl application of 30 μM ATP (final concentration = 10 μM) was then added to the same cells. A response upon the first (fragment) application and an absence of a response on the second (ATP) application indicated agonist activity followed by inhibition as a result of receptor desensitisation.
# In addition to testing fragments, the reproducibility of each experiment was assessed by including an ATP concentration–response in the first column and a saline control in the last column of the first application. […] The saline control in the first application also meant that an ATP concentration–response could be performed at the end of the second application. This allowed cell viability to be assessed by comparing the ATP concentration–response at the start of the first application with the ATP concentration–response at the end of the second application. […] Measurements from these concentration-dependence experiments were fitted using Eq. (1) below.
# Measurements from the FlexStation III were recorded using the integrated software SoftMax Pro v5.4.5 (Molecular Devices). Analysis of concentration-dependence was performed with GraphPad Prism v5.00 (GraphPad Software, San Diego, CA, USA). Peak fluorescence was measured at a range of ligand concentrations and normalised to the maximum peak fluorescence for the same experiment. The mean and standard error of the mean (S.E.M.) for a series of measurements was plotted against agonist or antagonist concentration and iteratively fitted to the following equation:(1) y=Imin+Fmax−Fmin/1+10^((logR50-x)^nH) where Fmin is the baseline fluorescence, Fmax is the peak fluorescence, R50 is the concentration of ligand needed to generate a half-maximal response, x is the ligand concentration and nH is the Hill slope.
# P2X7 receptors = target: T2, P2X7 receptors (Homo sapiens, UniProt Q99572); assay: Confocal imaging of Alexa-647-ATP labelling, P2X7-expressing cells; format: binding; conditions: HEK 293T cells expressing P2X7, data not shown
# T2 construct: expressed in transfected cells; host or cells: HEK 293T
# T2 sequence (Q99572 1-595): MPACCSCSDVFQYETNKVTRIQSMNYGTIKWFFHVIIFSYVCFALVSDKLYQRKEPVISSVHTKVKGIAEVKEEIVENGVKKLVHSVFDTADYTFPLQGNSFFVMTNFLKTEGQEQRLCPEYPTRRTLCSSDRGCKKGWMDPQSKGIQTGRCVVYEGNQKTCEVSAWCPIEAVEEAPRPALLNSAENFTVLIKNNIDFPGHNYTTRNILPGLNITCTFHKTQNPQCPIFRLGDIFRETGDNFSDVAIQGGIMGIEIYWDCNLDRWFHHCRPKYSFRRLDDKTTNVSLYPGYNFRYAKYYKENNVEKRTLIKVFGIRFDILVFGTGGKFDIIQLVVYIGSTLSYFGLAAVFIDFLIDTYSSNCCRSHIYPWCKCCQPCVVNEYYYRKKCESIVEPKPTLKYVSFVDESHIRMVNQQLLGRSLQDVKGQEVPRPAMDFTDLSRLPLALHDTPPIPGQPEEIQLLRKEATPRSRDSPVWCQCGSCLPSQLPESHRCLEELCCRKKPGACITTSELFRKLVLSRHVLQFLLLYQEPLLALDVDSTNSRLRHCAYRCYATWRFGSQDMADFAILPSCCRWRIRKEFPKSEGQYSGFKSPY
# [5] = test system: non-induced HEK 293T cells; assay: Confocal imaging of Alexa-647-ATP labelling on non-induced cells; format: binding; conditions: 150 nM Alexa-647-ATP
# Description: as §1
# P2X1 receptors [6] = target: T1, P2X1 receptors; assay: Confocal microscopy kinetic analysis of Alexa-647-ATP binding at the cell surface; parameters: expressed in transfected cells
# Description: Kinetic parameters were determined according to the following model of a simple bimolecular binding scheme:(2) L+R⇌koffkonLR where L is the free ligand concentration, R is receptor concentration, LR is the ligand–receptor complex and kon and koff are the microscopic association and dissociation rate constants. In a simple scheme such as this, the equilibrium dissociation constant (Kd) is equal to the ratio of dissociation to association rate constants, such that:(3) Kb=k−1/k+1
# According to a one site binding model of the type shown, the observed rates of association and dissociation can be used to estimate k+1 and k−1:(4) 1/τoff=k−1 and(5) 1/τon=k+1[L]+k−1 where τon refers to the rate at which fluorescence increases, τoff refers to the rate that fluorescence decreases and [L] is concentration of the ligand used.
# Intracellular and background fluorescence was also routinely monitored as a control.
# P2X4 receptors = target: T3, P2X4 receptors (Homo sapiens, UniProt Q99571); assay: Confocal imaging of Alexa-647-ATP labelling, P2X4-expressing cells; format: binding; conditions: HEK 293T cells expressing P2X4, data not shown
# T3 construct: expressed in transfected cells; host or cells: HEK 293T
# T3 sequence (Q99571 1-388): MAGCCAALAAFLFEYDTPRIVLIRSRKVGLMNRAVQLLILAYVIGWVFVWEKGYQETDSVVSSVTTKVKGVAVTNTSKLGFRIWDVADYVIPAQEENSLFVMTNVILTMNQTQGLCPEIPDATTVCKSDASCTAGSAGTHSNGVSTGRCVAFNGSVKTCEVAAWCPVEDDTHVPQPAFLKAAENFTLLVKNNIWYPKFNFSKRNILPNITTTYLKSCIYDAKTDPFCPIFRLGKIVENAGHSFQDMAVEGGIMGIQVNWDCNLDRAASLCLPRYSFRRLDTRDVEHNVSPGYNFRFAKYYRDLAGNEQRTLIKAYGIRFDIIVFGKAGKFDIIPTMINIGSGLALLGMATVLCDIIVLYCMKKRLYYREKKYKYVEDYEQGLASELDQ
# [7] = pre-treated with 5 mM, 150 nM Alexa-647-ATP
Compound,Alexa-647-ATP cell-surface fluorescence after pre-treatment (P2X1 receptors [2]; [7]),Hill slope (agonist response) (P2X1 receptors [4]),EC50 (P2X1 receptors [4]) [µM],pEC50 (P2X1 receptors [4]),EC50 [1],fluorescent response to agonist [3],Hill slope (inhibition) (P2X1 receptors [4]),other results
O=C(Nc1cc(C(=O)Nc2ccc(S(=O)(=O)O)cc2S(=O)(=O)O)cc(C(=O)Nc2ccc(S(=O)(=O)O)cc2S(=O)(=O)O)c1)Nc1cc(C(=O)Nc2ccc(S(=O)(=O)O)cc2S(=O)(=O)O)cc(C(=O)Nc2ccc(S(=O)(=O)O)cc2S(=O)(=O)O)c1 [NF449],–,–,–,–,–,–,1.1 ± 0.2,"Alexa-647-ATP cell-surface fluorescence after pre-treatment (P2X1 receptors [2]; pre-treated with 250 μM, 150 nM Alexa-647-ATP): not present; also recorded: not seen"
Cc1ccc(C(=O)Nc2ccc(S(=O)(=O)O)c3cc(S(=O)(=O)O)cc(S(=O)(=O)O)c23)cc1NC(=O)c1cccc(NC(=O)Nc2cccc(C(=O)Nc3cc(C(=O)Nc4ccc(S(=O)(=O)O)c5cc(S(=O)(=O)O)cc(S(=O)(=O)O)c45)ccc3C)c2)c1 [suramin],–,–,–,–,–,–,1.5 ± 0.7,"Alexa-647-ATP cell-surface fluorescence after pre-treatment (P2X1 receptors [2]; pre-treatment, concentration not printed, 150 nM Alexa-647-ATP): still seen; also recorded: no competition was seen; Alexa-647-ATP cell-surface fluorescence after pre-treatment (P2X1 receptors [2]; pre-treatment, concentration not printed, 150 nM Alexa-647-ATP, listed as Suramin): did not alter cell-surface fluorescence"
Alexa-647-ATP,–,1.1 ± 0.1,5.75,5.24 ± 0.04,low nanomolar,–,–,"cell-surface fluorescence (P2X7 receptors): could not detect any measureable fluorescence; cell-surface fluorescence [5]: not present; kobs (P2X1 receptors [6]; 0.5 μM Alexa-647-ATP): 0.79 ± 0.08 min⁻¹; kobs (P2X1 receptors [6]; 5 μM Alexa-647-ATP): 5.86 ± 0.58 min⁻¹; koff, direct measurement of dissociation (P2X1 receptors [6]; after rapid washing with PBS, mono-exponential fits): 0.00667 s⁻¹ and 0.00678 s⁻¹; association rate (kon) (P2X1 receptors [6]; slope of 1/τon (kobs) vs concentration): 1.142e+06 M⁻¹ s⁻¹; dissociation rate (koff) (P2X1 receptors [6]; y-axis intercept of 1/τon (kobs) vs concentration): 0.136 s⁻¹; cell-surface fluorescence (P2X4 receptors): could not detect any measureable fluorescence; cell-surface fluorescence after addition of ligand (P2X1 receptors [2]; 150 nM Alexa-647-ATP, P2X1-expressing HEK 293T cells): rapid increase in cell-surface fluorescence; cell permeability (fluorescence inside labelled cells) (P2X1 receptors [2]; live HEK 293T cells, confocal): not cell-permeable"

# Second part, led by results:
Alexa-647-ATP cell-surface fluorescence after pre-treatment (P2X1 receptors [2]; [7]),Hill slope (agonist response) (P2X1 receptors [4]),EC50 (P2X1 receptors [4]) [µM],pEC50 (P2X1 receptors [4]),Compound,EC50 [1],fluorescent response to agonist [3],Hill slope (inhibition) (P2X1 receptors [4]),other results
not seen,–,–,–,Nc1ncnc2c1ncn2[C@@H]1O[C@H](COP(=O)(O)OP(=O)(O)OP(=O)(O)O)[C@@H](O)[C@H]1O [ATP],low nanomolar,–,–,–
–,1.0 ± 0.1,14.1,4.85 ± 0.07,Nc1ncnc2c1ncn2[C@@H]1O[C@H](COP(=O)(O)OP(=O)([O-])OP(=O)([O-])O)[C@@H](O)[C@H]1O.[Mg+2] [MgATP],–,did not respond,–,–
not present,0.9 ± 0.2,5.49,5.26 ± 0.09,Nc1ncnc2c1ncn2[C@@H]1O[C@H](COP(=O)(O)OP(=O)([O-])OP(=O)([O-])O)[C@@H](O)[C@H]1O.[Na+].[Na+] [NaATP],–,did not respond,–,–
